Experimental data from US9751830B2, “Inhibitors of the tumor necrosis factor receptor complex” (The Trustees of the University of Pennsylvania, priority 2010, dated 2017).

Columns and labels:
L929 cells = assay: Inhibition of TNF-α-induced cytolysis in L929 cells (Crystal Violet staining); type: cell-based, murine
Method: L929 cultured murine fibroblast cells were obtained from American Type Culture collection (Manassas, Va.). TNF-α was obtained from Roche Applied Science (T6674). Actinomycin D (ACTD) and Crystal Violet were obtained from Sigma-Aldrich. Testing compounds were dissolved in DMSO at 25 mM. Compounds F001 and FT002/F002, appearing in FIG. 3 and FIG. 2/FIG. 4, were described previously in application Ser. No. 11/815,134 as FIGS. 1-6 and 1-9, respectively, and are reproduced here for reference. Compound 71023, appearing in FIG. 1, was ([(aminocarbothioyl)amino]{[4-({[[(aminocarbothioyl)amino](ammonio)methyl]amino}methyl)-2,5-dimethylbenzyl]amino}methylidene)ammonium dichloride, available from Maybridge Chemicals, UK. Compound MH_072 (also described herein as the compound of formula (II)) was also obtained from Maybridge Chemicals, UK. Compound MH_0724 was synthesized by Sapient Discovery, San Diego, Calif., as described in Example 2.
(§1) Stock L929 cells were grown on tissue culture plastic in complete Dulbecco's Modified Eagle Medium (DMEM) supplemented with 5 weight percent FBS [Fetal Bovine Serum], NEAA [non-essential amino acids], and glutamine. In a first set of experiments, L929 cells were plated using the same medium on 96-well tissue culture plates at high density (i.e., 30,000 cells/well) before use. In a second set of experiments, the testing compounds were pre-incubated with cells for 1 hour. hTNF-α (10 ng/ml) was added to cells for 30 minutes. Cell lysates were then collected for routine Western Blot.
(§2) Approximately 20 hours after plating the L929 cells on 96-well plates, they were re-fed onto fresh medium containing the test compounds (from 0 to 100 μM, final concentration).
For the TNF-α challenges, approximately 30 minutes later, medium containing 4 unit/mL rh-TNF-α and actinomycin D (10 μg/mL) was added. The final concentrations of rh-TNF-α in the assays were […], which is the ED50 concentrations confirmed to induce 50% cell death. The final concentrations of actinomycin D in the assays were 2.5 μg/mL. The plates were incubated for an additional 16-20 hours at 37° C., 5 vol % CO2 in air.
For Crystal Violet staining, the culture medium was discarded and replaced with 0.2% by weight (in 2% by volume ethanol in water), 100 μL/well. After 15 minutes incubation at room temperature, the plates were washed 6 times with deionized water and dried at 37° C. for 40 minutes. Sodium dodecylsylfate (SDS), (1 wt % in water; 100 μL) was added to each well and mixed gently for 1 hour at room temperature. The plates were read at A570 nm

[1] = test system: phosphorylation of IκB (p-IκBα(Ser32)); assay: Western blot of TNFα-induced phosphorylation of IκB in L929 cells; type: cell-based, murine; conditions: FIG. 4
Method: (§3) hTNF-α was obtained from Sigma (Cat # T6674). Antibodies for IκB, phospho-IκB, p38, and phospho-p38 were purchased from Cell Signaling.
as §1
(§4) Inhibition of TNFα signaling pathways: Upon binding to TNFRs, TNFα induces inflammation through the activation of NFκB and p38 signaling pathways. We determined IκB and p38 effects. IκB is the inhibitor for NFκB. TNFα leads to the phosphorylation and disassociation of IκB from NFκB, a signaling event required for NFκB to become activated and translocate into the nucleus to mediate gene transcription.

[2] = test system: TNFα mediated NFκB activity (A549Luc cells); assay: TNFα mediated NFκB luciferase reporter assay in A549Luc cells; type: cell-based, human; conditions: for inhibition of TNFα mediated luciferase activity: 1 hr pre-treatment, 20 ng/ml TNFα 4 hours, FIG. 7; for activity to reduce luciferase activity, F002 and MH0724 compared: concentrations up to 75 μM
Method: To study TNFα mediated-NFκB activity, a luciferase reporter system was established. The stable cell line A549Luc was derived from human A549 cells with chromosomal integration of a luciferase reporter construct regulated by 6 copies of the NFκB response element. This clonal cell line was obtained by co-transfection of pNFκB-TA-luc and pFLAG-TNFR1-neo followed by G418 selection at 800 μg/ml. A549Luc cells were pre-treated with inhibitors at indicated concentrations for 1 hr before incubation with 20 ng/ml TNFα for 4 hours. Increased luciferase activity was recorded after TNFα treatment. Luciferase activity was determined using the Luciferase Assay System from Promega.
In this assay, the luciferase activity of A549Luc cells before and after TNFα treatment (20 ng/ml) was equivalent to 0% and 100%, respectively.

[3] = Solubility under the conditions of the L929 cytolysis assay; type: physicochemical; conditions: L929 cytolysis assay medium, plasma or biological fluid; read-out: soluble under these conditions only up to
Method: as §2

[4] = test system: phosphorylation of p38 (p-p38); assay: Western blot of TNFα-induced phosphorylation of p38 in L929 cells; type: cell-based, murine; conditions: 50 μM; 1 hour pre-incubation, hTNF-α 10 ng/ml 30 minutes; FIG. 4
Method: as §3, §1, §4

[5] = biological target: T1, TNFR1 ectodomain (TNFR1 ECD) (Homo sapiens, UniProt P19438); assay: Isothermal titration calorimetry (ITC) binding to TNFR1 ectodomain; conditions: 25° C., pH 8.0, 5% DMSO, estimated, read-out: affinity between compound and TNFR1 ECD
T1 construct: The calorimetric cell containing purified TNFR1 ectodomain at a concentration of 0.1 mM; His; made in house
T1 sequence (P19438 30-211 limits assumed): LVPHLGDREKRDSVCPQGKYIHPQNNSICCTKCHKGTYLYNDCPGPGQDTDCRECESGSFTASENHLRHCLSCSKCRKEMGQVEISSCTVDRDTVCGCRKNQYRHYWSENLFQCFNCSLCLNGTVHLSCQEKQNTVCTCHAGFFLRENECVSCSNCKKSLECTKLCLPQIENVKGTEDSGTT
Method: Human TNFR1 ectodomain was expressed in bacteria as described Murali, et al., 2005 PNAS 102:10970-75, which is incorporated by reference herein in its entirety. The His-tagged recombinant protein was purified from bacterial cell lysate using Ni-NTA column About 4 mg proteins were obtained from 6 liters of culture. The purified TNFR1 ectodomain was verified for binding activity to hTNF-α in ELISA assay.
Isothermal Titration calorimetry (ITC). The binding thermodynamics of MH724 to TNFR1 was measured by ITC using a high precision VP-ITC titration calorimetric system (Microcal LLC, Northampton, Mass.). The calorimetric cell containing purified TNFR1 ectodomain at a concentration of 0.1 mM in 50 mM sodium phosphate buffer (pH 8.0) containing 300 mM NaCl and 5% DMSO was titrated with MH724 dissolved in the same buffer. The concentration of inhibitor was 2 mM. Injection volumes were 8 μl. All solutions were properly degassed to avoid any formation of bubbles in the calorimeter during stirring. The heat evolved upon each injection of inhibitor was obtained from the integral of the calorimetric signal. The heat associated with the binding of the inhibitor to TNFR1 was obtained by subtracting the heat of dilution from the heat of reaction. The measurements were made at 25° C. Data were analyzed and fitted by using the data analysis software supplied by Microcal (ORIGIN 5.0).

For `COc1ccc(C(O)(c2ccc(OC)cc2)c2ccc(OC)cc2)cc1` [Compound F001, reference compound], which “inhibition of TNF-α-induced cytolysis in L929 cells” value (from here on “inhibition … in L929 cells”) (L929 cells; from 0 to 100 μM, FIG. 3) is on record?
Its value is “minimal activity”.

Which “activity on TNFα signaling, F002 compared with MH724” value ([1]; 10 μM, IκB and p38 phosphorylation) does the source give for `CC(=O)Oc1ccc(C(O)(c2ccc(OC(C)=O)cc2)c2ccc(OC(C)=O)cc2)cc1` [Compound F002, reference compound] here?
The value was “slightly more activity”.

What about the “inhibition of TNFα mediated luciferase activity” value [2] of the same compound?
The value was “dose-dependent manner”.

What about the “activity to reduce luciferase activity, F002 and MH0724 compared” value [2] of the same compound?
Its value is “comparable activity”.

With `CC(=O)Nc1ccccc1OCC(O)CNCc1ccc(C(F)(F)F)cc1` (stereo not shown) [MH_072] as the compound, how does the “maximum inhibition of TNF-α-induced cytolysis” value (L929 cells; 0 to 50 μM, level limited by solubility) read?
The value was “about 30%”.

And the inhibition at 50 µM (L929 cells; Mus musculus, L929, at 50 μM)?
The inhibition at 50 µM was ~30%.

What about the “inhibition … in L929 cells” value (L929 cells; from 0 to 50 μM, FIG. 2) of the same compound?
The value was “dose-dependent inhibition”.

What about the solubility [3] of the same compound?
Its solubility is ≤ 50 µM.

With `COC(CNc1ccc(C(F)(F)F)cc1)COc1ccccc1COC(C)=O` (stereo not shown) [MH_0724, Acetic acid 2-[2-methoxy-3-(4-trifluoromethyl-phenylamino)-propoxy]-benzyl ester] as the compound, how does the inhibition at 100 µM (L929 cells; Mus musculus, L929, 100 μM, read-out: maximal inhibition of TNF-α-induced cytolysis) read?
The inhibition at 100 µM was ~70%.

And the inhibition at 50 µM (L929 cells; Mus musculus, L929, at 50 μM)?
Its inhibition at 50 µM is ~40%.

What about the “inhibition of TNF-α-induced cytolysis” value (L929 cells; at 50 μM) of the same compound?
The value was “about 40%”.

And the “inhibition … in L929 cells” value (L929 cells; from 0 to 100 μM, FIG. 3)?
Its value is “dose-dependent inhibition”.

What about the “inhibition of TNFα-induced phosphorylation of IκB” value ([1]; 50 μM, 1 hour pre-incubation, hTNF-α 10 ng/ml 30 minutes) of the same compound?
Its value is “clearly inhibits”.

What about the “activity on TNFα signaling, MH724 compared with F002” value ([1]; 50 μM, IκB and p38 phosphorylation) of the same compound?
Its value is “better activity”.

And the “inhibition of TNFα-induced phosphorylation of p38” value [4]?
The value was “clearly inhibits”.

What about the Kd [5] of the same compound?
Its Kd is 32 µM.

What about the “luciferase activity, of the control” value ([2]; 100 μM, before and after TNFα treatment = 0% and 100%) of the same compound?
Its value is “less than 40%”.

And the “inhibition of TNFα mediated luciferase activity” value [2]?
Its value is “dose-dependent manner”.

And the “activity to reduce luciferase activity, F002 and MH0724 compared” value [2]?
Its value is “comparable activity”.
